≈ marks a conversion by molar mass, not a printed value.
Key:
Candida albicans [1] = assay: Antimicrobial activity against Candida albicans after 7 days by serial dilution method; type: functional; parameters: unit not given here
[2] = test system: Human herpesvirus 3 strain Oka vaccine; assay: Antiviral activity against Human herpesvirus 3 strain Oka vaccine OKA 07-1 (Varicella zoster virus) infected in human HEL cells assessed as inhibition of virus-induced cytopathicity; type: functional, organism-based; details: Human alphaherpesvirus 3, OKA 07-1, HEL
Human alphaherpesvirus 2 = assay: Antiviral activity against Human herpesvirus 2 strain G infected human HEL cells assessed as inhibition of virus-induced cytopathicity by microscopy; type: functional, organism-based; details: Human alphaherpesvirus 2, strain G
Vaccinia virus = assay: Antiviral activity against Vaccinia virus infected human HEL cells assessed as inhibition of virus-induced cytopathicity by microscopy; type: functional, organism-based; details: Orthopoxvirus vaccinia
Escherichia coli = assay: Antimicrobial activity against Escherichia coli after 24 hr by serial dilution method; type: functional; parameters: unit not given here
Punta Toro virus = assay: Antiviral activity against Punta Toro virus infected Vero cells assessed as inhibition of virus-induced cytopathicity; type: functional, organism-based
Coxsackievirus B4 [3] = assay: Antiviral activity against Human coxsackievirus B4 infected Vero cells assessed as inhibition of virus-induced cytopathicity; type: functional, organism-based; details: Enterovirus B
[4] = Cytotoxicity against Homo sapiens (human) MT4 cells after 4 days by MTT assay; type: cell-based
[5] = test system: Human immunodeficiency virus 1; assay: Antiviral activity against Human immunodeficiency virus 1 IIIB infected MT4 cells assessed as inhibition of virus-induced cytopathic effect after 4 days by MTT assay; type: functional, organism-based; details: MT4, 96 h
Sindbis virus = assay: Antiviral activity against Sindbis virus infected Vero cells assessed as inhibition of virus-induced cytopathicity; type: functional, organism-based
[6] = test system: Human immunodeficiency virus 2; assay: Antiviral activity against Human immunodeficiency virus type 2 (ISOLATE ROD) infected MT4 cells assessed as inhibition of virus-induced cytopathic effect after 4 days by MTT assay; type: functional, organism-based; details: Human immunodeficiency virus 2, ISOLATE ROD, MT4, 96 h
[7] = test system: Human herpesvirus 5 strain AD169; assay: Antiviral activity against Human herpesvirus 5 strain AD169 Davis infected human HEL cells assessed as inhibition of virus-induced cytopathicity by microscopy; type: functional, organism-based; details: Human betaherpesvirus 5, Davis
Bacillus subtilis = assay: Antimicrobial activity against Bacillus subtilis after 24 hr by serial dilution method; type: functional; parameters: unit not given here
Human respirovirus 3 = assay: Antiviral activity against Human parainfluenza virus 3 infected Vero cells assessed as inhibition of virus-induced cytopathicity by microscopy; type: functional, organism-based; details: Human respirovirus 3, Vero
[8] = test system: Mycobacterium tuberculosis; assay: Antimicrobial activity against Mycobacterium tuberculosis by agar dilution method; type: functional
Human alphaherpesvirus 1 [9] = assay: Antiviral activity against Human herpesvirus 1 strain KOS infected in human HEL cells assessed as inhibition of virus-induced cytopathicity by microscopy by microscopy; type: functional, organism-based; details: Human alphaherpesvirus 1, KOS
[10] = Cytotoxicity against Homo sapiens (human) HEL cells assessed as alteration in cell morphology by microscopy; type: cell-based
Coxsackievirus B4 [11] = assay: Antiviral activity against Human coxsackievirus B4 infected human HeLa cells assessed as inhibition of virus-induced cytopathicity by microscopy; type: functional, organism-based; details: Enterovirus B
[12] = Cytotoxicity against Chlorocebus aethiops (African green monkey) Vero cells assessed as alteration in cell morphology by microscopy; type: cell-based; details: chlorocebus sabaeus
Staphylococcus aureus = assay: Antimicrobial activity against Staphylococcus aureus after 24 hr by serial dilution method; type: functional; parameters: unit not given here
[13] = test system: Respiratory syncytial virus; assay: Antiviral activity against Respiratory syncytial virus infected human HeLa cells assessed as inhibition of virus-induced cytopathicity by microscopy; type: functional, organism-based
[14] = test system: Vesicular stomatitis virus; assay: Antiviral activity against Vesicular stomatitis virus infected human HeLa cells assessed as inhibition of virus-induced cytopathicity by microscopy; type: functional, organism-based
[15] = Cytotoxicity against Homo sapiens (human) HeLa cells assessed as alteration in cell morphology by microscopy; type: cell-based
Human alphaherpesvirus 1 [16] = assay: Antiviral activity against TK(-) aciclovir-resistant Human herpesvirus 1 strain KOS infected in human HEL cells assessed as inhibition of virus-induced cytopathicity; type: functional, organism-based; details: Human alphaherpesvirus 1, KOS
Candida albicans [17] = assay: Antimicrobial activity against Candida albicans after 2 days by serial dilution method; type: functional; parameters: unit not given here
[18] = test system: Mammalian orthoreovirus 1; assay: Antiviral activity against Mammalian orthoreovirus 1 infected Vero cells assessed as inhibition of virus-induced cytopathicity by microscopy; type: functional, organism-based; details: Mammalian orthoreovirus 1, Vero

| SMILES | -logMIC (Candida albicans [1]) | EC50 [2] [µg/mL] | EC50 (Human alphaherpesvirus 2) [µg/mL] | EC50 (Vaccinia virus) [µg/mL] | -logMIC (Escherichia coli) | EC50 (Punta Toro virus) [µg/mL] | EC50 (Coxsackievirus B4 [3]) [µg/mL] | CC50 at 96 h [4] [µg/mL] | EC50 [5] [µg/mL] | EC50 (Sindbis virus) [µg/mL] | EC50 [6] [µg/mL] | EC50 [7] [µg/mL] | -logMIC (Bacillus subtilis) | EC50 (Human respirovirus 3) [µg/mL] | MIC [8] [µg/mL] | EC50 (Human alphaherpesvirus 1 [9]) [µg/mL] | CC50 [10] [µg/mL] | MCC [10] [µg/mL] | EC50 (Coxsackievirus B4 [11]) [µg/mL] | MCC [12] [µg/mL] | further results |
| --- | --- | --- | --- | --- | --- | --- | --- | --- | --- | --- | --- | --- | --- | --- | --- | --- | --- | --- | --- | --- | --- |
| O=C(N/N=C/c1ccc(Cl)cc1)c1cccnc1 | 1.92 | > 100 | > 100 | > 100 | 1.32 | > 100 | > 100 | 76 (≈ 293 µM) | > 76 | > 100 | > 76 | > 100 | 1.02 | > 100 | 25 (≈ 96.3 µM) | > 100 | 29 (≈ 112 µM) | > 100 | > 100 | > 100 | -logMIC (Staphylococcus aureus): 1.32; EC50 [13]: > 100 µg/mL; EC50 [14]: > 100 µg/mL; MCC [15]: > 100 µg/mL; EC50 (Human alphaherpesvirus 1 [16]): > 100 µg/mL; -logMIC (Candida albicans [17]): 1.32; EC50 [18]: > 100 µg/mL |
| O=C(N/N=C/c1cccc(Br)c1)c1cccnc1 | 1.99 | > 100 | > 100 | > 100 | 1.39 | > 100 | > 100 | 66 (≈ 217 µM) | > 66 | > 100 | > 66 | > 100 | 1.39 | > 100 | > 25 | > 100 | 55 (≈ 181 µM) | > 100 | > 100 | ≥ 100 | -logMIC (Staphylococcus aureus): 1.09; EC50 [13]: > 100 µg/mL; EC50 [14]: > 100 µg/mL; MCC [15]: ≥ 100 µg/mL; EC50 (Human alphaherpesvirus 1 [16]): > 100 µg/mL; -logMIC (Candida albicans [17]): 1.38; EC50 [18]: > 100 µg/mL |
| O=C(N/N=C/c1cccc(Cl)c1)c1cccnc1 | 1.92 | > 100 | > 100 | > 100 | 1.02 | > 100 | > 100 | 62 (≈ 239 µM) | > 62 | > 100 | > 62 | > 100 | 1.02 | > 100 | > 25 | > 100 | 53 (≈ 204 µM) | > 100 | > 100 | > 100 | -logMIC (Staphylococcus aureus): 1.32; EC50 [13]: > 100 µg/mL; EC50 [14]: > 100 µg/mL; MCC [15]: > 100 µg/mL; EC50 (Human alphaherpesvirus 1 [16]): > 100 µg/mL; -logMIC (Candida albicans [17]): 1.32; EC50 [18]: 34 µg/mL (≈ 131 µM) |
| O=C(N/N=C/c1ccccc1Cl)c1cccnc1 | 1.32 | > 100 | > 100 | > 100 | 1.02 | > 100 | > 100 | ≥ 0.57 | > 0.57 | > 100 | > 0.57 | > 100 | 1.02 | > 100 | > 25 | > 100 | 12 (≈ 46.2 µM) | > 100 | > 20 | > 100 | -logMIC (Staphylococcus aureus): 1.32; EC50 [13]: > 20 µg/mL; EC50 [14]: > 20 µg/mL; MCC [15]: 100 µg/mL; EC50 (Human alphaherpesvirus 1 [16]): > 100 µg/mL; -logMIC (Candida albicans [17]): 1.32; EC50 [18]: > 100 µg/mL |
| O=C(N/N=C/c1ccccc1Br)c1cccnc1 | 1.69 | > 51 | > 20 | > 20 | 1.39 | > 100 | > 100 | ≥ 0.22 | > 0.22 | > 100 | > 0.22 | > 100 | 1.39 | > 100 | > 25 | > 20 | 2.6 (≈ 8.55 µM) | 100 | > 100 | > 100 | -logMIC (Staphylococcus aureus): 1.09; EC50 [13]: > 100 µg/mL; EC50 [14]: > 100 µg/mL; MCC [15]: > 100 µg/mL; EC50 (Human alphaherpesvirus 1 [16]): > 20 µg/mL; -logMIC (Candida albicans [17]): 1.39; EC50 [18]: > 100 µg/mL |
| O=C(N/N=C/c1ccc(Br)cc1)c1cccnc1 | 1.39 | > 100 | > 100 | > 100 | 1.39 | > 100 | > 100 | 61 (≈ 201 µM) | > 61 | > 100 | > 61 | > 100 | 1.39 | > 100 | 25 (≈ 82.2 µM) | > 100 | 48 (≈ 158 µM) | > 100 | > 100 | > 100 | -logMIC (Staphylococcus aureus): 1.09; EC50 [13]: > 100 µg/mL; EC50 [14]: > 100 µg/mL; MCC [15]: > 100 µg/mL; EC50 (Human alphaherpesvirus 1 [16]): > 100 µg/mL; -logMIC (Candida albicans [17]): 1.39; EC50 [18]: > 100 µg/mL |
| O=C(N/N=C/c1ccc(F)cc1)c1cccnc1 | 1.59 | > 100 | > 100 | > 100 | 1.29 | > 100 | > 100 | > 125 | > 125 | > 100 | > 125 | > 100 | 1.29 | > 100 | 25 (≈ 103 µM) | > 100 | > 100 | > 100 | > 100 | > 100 | -logMIC (Staphylococcus aureus): 1.29; EC50 [13]: > 100 µg/mL; EC50 [14]: > 100 µg/mL; MCC [15]: > 100 µg/mL; EC50 (Human alphaherpesvirus 1 [16]): > 100 µg/mL; -logMIC (Candida albicans [17]): 1.29; EC50 [18]: > 100 µg/mL |
| O=C(N/N=C/c1ccccc1O)c1cccnc1 [N'-(2-HYDROXYBENZYLIDENE)NICOTINOHYDRAZIDE] | 1.29 | > 2.2 | > 4 | > 4 | 1.29 | > 0.8 | > 0.8 | 0.61 (≈ 2.53 µM) | > 0.61 | > 0.8 | > 0.61 | > 0.8 | 1.59 | > 0.8 | > 25 | > 4 | 0.42 (≈ 1.74 µM) | ≥ 4 | > 0.8 | 4 | -logMIC (Staphylococcus aureus): 1.29; EC50 [13]: > 0.8 µg/mL; EC50 [14]: > 0.8 µg/mL; MCC [15]: 4 µg/mL; EC50 (Human alphaherpesvirus 1 [16]): > 4 µg/mL; -logMIC (Candida albicans [17]): 1.28; EC50 [18]: > 0.8 µg/mL |
| O=C(N/N=C/c1ccccc1)c1cccnc1 [NICOTINIC ACID BENZYLIDENE-HYDRAZIDE] | 1.86 | > 100 | > 100 | > 100 | 1.26 | > 100 | > 100 | > 125 | > 125 | > 100 | > 125 | > 100 | 0.95 | > 100 | > 25 | > 100 | > 100 | > 100 | > 20 | > 100 | -logMIC (Staphylococcus aureus): 0.35; EC50 [13]: > 20 µg/mL; EC50 [14]: > 20 µg/mL; MCC [15]: 100 µg/mL; EC50 (Human alphaherpesvirus 1 [16]): > 100 µg/mL; -logMIC (Candida albicans [17]): 1.25; EC50 [18]: > 100 µg/mL |
